Source: patent US7020578B2, “Method for evaluating novel, stroke treatments using a tissue risk map” (The General Hospital Corporation, priority 2000, dated 2006)

Tests used:
Format in all cases: in vivo, human
[1] = phase I/II double-blind, randomized, placebo-controlled, dose-escalation trial of intravenous bFGF (FIBLAST) in stroke patients; change in NIH Stroke Scale score, admission vs discharge; settings: for number of treated patients with ΔNIH SS < 4 / number of treated patients with ΔNIH SS ≧ 4 (improved outcome): 2 × 2 contingency table
Description: Sixty-six patients were entered into a phase I/II trial of basic fibroblast growth factor (bFGF), FIBLAST. This trial was a double-blind, randomized, placebo-controlled, dose-escalation, and three month follow-up study of intravenous infusion of basic fibroblast growth factor (bFGF). Patients were randomized either to placebo or one of six different doses of bFGF ranging from […] to 150 μg/kg. Eleven patients were enrolled at Massachusetts General Hospital (MGH). Each patient underwent MRI imaging according to the standard MGH protocol within the first ten hours of symptom onset, and follow-up imaging at discharge.
The primary efficacy measure was change in NIH Stroke Scale (NIHSS) score measured at admission compared to that reported at discharge. Patients were classified as having an improved outcome if the NIH SS score decreased by more than four points. Two by two contingency tables were computed for the placebo versus the bFGF treated patients and a Fisher's Exact test performed.
Patients with greater than a four point change on the NIH SS score were classified as having a favorable outcome. A 2×2 contingency table, shown in Table 4, was evaluated for statistical independence between treated and placebo groups using Fisher's exact test.

[2] = GLM risk map of infarction from initial DWI/PWI compared with final infarct on follow-up imaging in bFGF trial patients; settings: Patient 7; full dose (150 ug/kg); 19 day follow-up FLAIR
Description: A generalized linear model (GLM) of risk of tissue infarction was generated from retrospective studies of hyperacute cerebral ischemia patients who received diffusion and perfusion weighted imaging within twelve hours of presenting with symptoms. Only patients with cortical infarcts caused by occlusion of major cerebral arteries were included in the training data. […] The volumetric diffusion and perfusion data were coregistered utilizing an automated image registration software package (AIR 3.08). Utilizing a supervised learning algorithm and logistic regression, the parameters for the GLM were computed using coregistered data sets, as described in the previous section.
In one embodiment, a GLM algorithm is used to model tissue outcome. Tissue outcome y can be modeled as a binary variable (normal/abnormal) and therefore a Bernoulli probability density function assumed for its distribution. The logistic function can then be used to compute y as set forth below in Equation 1: [formula] where y is an estimate of the risk of infarction, x represents an input vector that can include an initial T2, ADC, rCBF (relative cerebral blood flow), rCBV (relative cerebral blood volume) and MTT (mean transmit time) data and B the calculated coefficients.
The dose of bFGF was correlated with the positive predictive value (PPV) of the GLM model described in the previous section. […]

[3] = phase I/II double-blind, randomized, placebo-controlled, dose-escalation trial of intravenous bFGF (FIBLAST) in stroke patients; change in NIH Stroke Scale score, admission vs discharge; settings: Patient 9*; 3 μg/kg; NIH SS (Initial) 2; follow-up 3 days
[4] = patients enrolled at MGH, all doses pooled
[5] = subset of 7 patients evaluated with GLM models

basic fibroblast growth factor [bFGF]
number of treated patients with ΔNIH SS < 4 [1, 4]: 4 | number of treated patients with ΔNIH SS ≧ 4 (improved outcome) [1, 4]: 4 | number of treated patients with ΔNIH SS < 4 [1, 5]: 1 | number of treated patients with ΔNIH SS ≧ 4 (improved outcome) [1, 5]: 4 | NIH SS (Discharge) ([1]; Patient 3, 9 μg/kg, NIH SS (Initial) 15, follow-up 7 days): 5 | NIH SS (Discharge) ([1]; Patient 4, 27 μg/kg, NIH SS (Initial) 15, follow-up 7 days): 11 | NIH SS (Discharge) ([1]; Patient 5, 75 μg/kg, NIH SS (Initial) 6, follow-up 4 days): 1 | NIH SS (Discharge) ([1]; Patient 6, 150 μg/kg, NIH SS (Initial) 16, follow-up 13 days): 14 | NIH SS (Discharge) ([1]; Patient 7, 150 μg/kg, NIH SS (Initial) 17, follow-up 19 days): 12 | NIH SS (Discharge) ([1]; Patient 8*, 75 μg/kg, NIH SS (Initial) 4, follow-up 8 days): 2 | NIH SS (Discharge) ([1]; Patient 10*, 75 μg/kg, NIH SS (Initial) 4, follow-up 5 days): 3 | NIH SS (Discharge) ([1]; Patient 11*, 3 μg/kg, NIH SS (Initial) 18, follow-up 7 days): 20 | statistical independence between treated and placebo groups, improved outcome (Fisher's exact test) ([1]; Table 4, patients enrolled at MGH): No statistical significance | statistical independence between treated and placebo groups, improved outcome (Fisher's exact test) ([1]; Table 5, subset of 7 patients): No statistical significance | outcome of penumbra predicted at risk of infarction by the risk map, on follow-up FLAIR [2]: does not go on to infarction | NIH SS (Discharge) [3]: 2
